In patent US5866609A, “Substituted vinylurea derivatives and medicine containing the same” (SS Pharmaceutical Co., Ltd., priority 1996, dated 1999):

Key:
ACAT in J774 cells = target: T1, ACAT in J774 cells (Mus musculus, UniProt Q61263); experiment: inhibitory activity against ACAT using J774 cells; type: cell-based; conditions: 100 nM of each compound, mean ± S.D., n = 3, 4 hours at 37° C., vs DMSO control, read-out: Inhibition rate against ACAT activity in J774 cells (%)
T1 construct: endogenous in cells; host or cells: J774 cells (mouse macrophage-like)
T1 sequence (Q61263 1-540): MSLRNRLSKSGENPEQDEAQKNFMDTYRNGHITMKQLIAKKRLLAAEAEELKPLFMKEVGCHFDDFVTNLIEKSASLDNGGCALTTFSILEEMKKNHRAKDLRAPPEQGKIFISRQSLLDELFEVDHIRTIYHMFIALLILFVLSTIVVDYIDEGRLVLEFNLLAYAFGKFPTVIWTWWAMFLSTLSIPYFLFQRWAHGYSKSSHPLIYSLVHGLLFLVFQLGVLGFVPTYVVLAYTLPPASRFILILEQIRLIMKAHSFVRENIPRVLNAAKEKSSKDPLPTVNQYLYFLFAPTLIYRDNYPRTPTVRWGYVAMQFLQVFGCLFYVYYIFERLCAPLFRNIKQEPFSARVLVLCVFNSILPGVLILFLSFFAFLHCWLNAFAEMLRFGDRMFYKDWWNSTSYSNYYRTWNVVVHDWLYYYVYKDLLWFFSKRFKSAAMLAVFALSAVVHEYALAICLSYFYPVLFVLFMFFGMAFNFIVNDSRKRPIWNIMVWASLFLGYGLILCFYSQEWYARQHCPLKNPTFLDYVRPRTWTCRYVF
Protocol: i) Test for inhibitory activity against ACAT using J774 cells:
The ACAT activity of J774 cells was measured as the radioactivity of cholesteryl oleate produced from [^14 C]oleic acid and cholesterol which were added to a culture solution.
Added to the cells were [^14 C]oleic acid, delipidized BAS (bovine serum albumin), […] (0.3M glucose solution containing cholesterol and phosphatidylcholine at a weight ratio of 2:1) and 25-hydroxycholesterol to culture the cells for 4 hours at 37° C. under 5% CO2. After the culturing, the cultured cells were disrupted with a 1% SDS (sodium lauryl sulfate) solution, and the lipid in the disrupted solution was extracted with hexane. The extract was dried to solid under reduced pressure. After the resultant residue was then developed (developing solvent: diethyl ether/hexane/acetic acid=80/20/1) by TLC (thin-layer chromatography), the amount of cholesteryl oleate formed was determined by an imaging plate.

[1] = target: T2, ACAT of rat liver microsome (Rattus norvegicus, UniProt Q7TQM4); experiment: inhibitory activity against ACAT using rat liver microsome; type: biochemical; conditions: 5 min; 100 nM of each compound; Mean + S.D.; n = 3; 37° C. for 5 minutes; vs DMSO control; read-out: Inhibition rate against ACAT activity in rat liver microsome (%)
T2 construct: from tissue; host or cells: rat liver microsomes
T2 sequence (Q7TQM4 1-524): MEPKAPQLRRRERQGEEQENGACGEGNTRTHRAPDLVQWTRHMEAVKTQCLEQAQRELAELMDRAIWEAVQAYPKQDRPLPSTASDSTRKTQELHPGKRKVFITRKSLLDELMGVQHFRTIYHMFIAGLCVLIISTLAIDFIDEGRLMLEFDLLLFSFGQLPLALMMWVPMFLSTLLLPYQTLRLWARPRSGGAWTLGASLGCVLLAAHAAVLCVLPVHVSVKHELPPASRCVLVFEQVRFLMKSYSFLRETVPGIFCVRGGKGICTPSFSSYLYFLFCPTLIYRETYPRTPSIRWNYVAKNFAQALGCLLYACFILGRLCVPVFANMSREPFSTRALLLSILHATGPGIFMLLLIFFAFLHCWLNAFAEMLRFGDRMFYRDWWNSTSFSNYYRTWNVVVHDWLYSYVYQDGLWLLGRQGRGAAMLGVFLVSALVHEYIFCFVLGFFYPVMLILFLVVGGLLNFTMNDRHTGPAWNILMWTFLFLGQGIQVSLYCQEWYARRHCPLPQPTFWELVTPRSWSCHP
Protocol: - ii) Test for inhibitory activity against ACAT using rat liver microsome
The ACAT activity of rat liver microsome was measured as the radioactivity of cholesteryl oleate produced from [^14 C]oleoyl-CoA and endogenous cholesterol.
More specifically, [^14 C]oleoyl-CoA and delipidized BSA were added to a rat liver microsome fraction prepared in accordance with a method known per se in the art to conduct a reaction at 37° C. for 5 minutes. After the reaction, the lipid in the reaction mixture was extracted with hexane, and the extract was dried to solid under reduced pressure. After the resultant residue was then developed (developing solvent: diethyl ether/hexane/acetic acid 80/20/1) by TLC, the amount of cholesteryl oleate formed was determined by an imaging plate.

inhibition at 0.1 µM (ACAT in J774 cells) [%] | inhibition at 0.1 µM [1] [%] | Structure (SMILES)
36.9 ± 11.9 | 82.3 ± 2.79 | Cc1cc2ncc(NC(=O)Nc3ccc(F)cc3F)c(-c3ccccc3Cl)c2cc1C [TMP-153]
77.8 ± 4 | 7.87 ± 9.26 | COc1ccc(C(=CNC(=O)Nc2c(C(C)C)cccc2C(C)C)c2ccc(OC)cc2)cc1 [Compound 3]
